Measurements taken from patent publication US8232299B2, “Phthalimide derivatives that influence cellular vesicular systems, pharmaceutical compositions, and use thereof” (Avidin Kft., priority 2007, dated 2012).

Columns and labels:
human melanoma (HT168M1) = test: spleen/liver animal model, melanoma cells injected into spleen; assay type: in vivo, CB17/scid mice
Description: Studies were conducted in the spleen/liver animal model. From 40 adult male CB17/scid mice, born with immunodeficiency, 20 were randomly selected, and they were further divided into two groups. Animals were marked on their ear one by one. 10 of the selected mice were treated with compound 3b (40 mg/kg) for 5 days (PRETREATED/3b), the other 10 animals were treated per os by gavage with appropriate dilution of DMSO serving as the carrier (PRETREATED/control). On the 5th treatment day all the 40 animals were anesthetized by Nembutal (75 mg/kg), and 4×10^4 cells from human melanoma (HT168M1) was injected into their spleens (i.s.). Local bleeding during the implantation was treated with Gelaspon resorbable gelatin sponge. On the 7th day after the implantation the non-treated 20 mice were randomly assigned into two groups and their ear was marked. 10 mice were treated from this time on with compound 3b (40 mg/kg) (POSTTREATED/3b), the other 10 were treated with appropriate dilution of the carrier (DMSO) with similar frequency (POSTTREATED/control) per os once a day five times per week for three weeks. Pretreated groups were not treated after the implantation. Body weight changes were monitored once a week for each animal. 31 days after implantation animals were sacrificed by bleeding in Nembutal (75 mg/kg) anesthesia. […]

SEC22b protein = molecular target: T1, SEC22b protein (Homo sapiens, UniProt O75396); test: binding to vesicle movement protein
T1 sequence (O75396 1-215): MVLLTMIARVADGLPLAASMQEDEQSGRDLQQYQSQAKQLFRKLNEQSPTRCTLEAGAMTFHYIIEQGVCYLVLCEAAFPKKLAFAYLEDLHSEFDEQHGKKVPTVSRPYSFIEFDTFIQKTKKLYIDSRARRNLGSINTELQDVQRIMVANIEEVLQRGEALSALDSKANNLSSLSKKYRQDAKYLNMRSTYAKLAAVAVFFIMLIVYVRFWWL

TNFα = test: late phase (transcriptionally induced) TNFα secretion of macrophages, ELISA; assay type: cell-based, mice; settings: preformed TNFα washed away after 4 hours, TNFα of next 4 hours; FIG. 3
Description: For the detection of late phase TNFα secretion the preformed TNFα, released after LPS induction of the macrophages, was washed away after 4 hours, and the amount of TNFα produced during the next 4 hours was determined by ELISA test. […] Results are depicted in FIG. 3.

In the case of `CCNc1c(F)c(F)c2c(c1F)C(=O)N(c1c(C(C)C)cccc1C(C)C)C2=O` [Compound 3b, 2-(2,6-diisopropylphenyl)-5-(ethylamino)-4,6,7-trifluoroisoindole-1,3-dione], the “further metastasis of the adhered cells” value (human melanoma (HT168M1); posttreatment 40 mg/kg per os from day 7, five times per week for three weeks, not statistically significant) is reported as “slightly inhibited”, the number of metastases (human melanoma (HT168M1); pretreatment 40 mg/kg per os for 5 days before implantation, p=0.05, FIG. 7) is reported as “significantly reduced the number of metastases” and the “binding to SEC22b protein” value (SEC22b protein) is reported as “can also bind to SEC22b protein”. For the same molecule, the “late TNFα secretion of macrophages” value (TNFα) was “inhibited late TNFα secretion of macrophages in a concentration dependent way”.
